This data set can be described thus: Single-dose four-period crossover pharmacokinetic study of 75, 150, 300 and 600 mg aliskiren (dosage form 3) in healthy volunteers (Example 3). To be noted: human, plasma; for Cmax / AUC(0-t) / AUC(0-inf): arithmetic mean (SD); for AUC(0-t): read-out: AUC0-96; for Tmax: median, dosage form 3, healthy subjects n = 30, fasted. Format: in vivo. On the procedure:
An open-label, single-dose, four-period, four-treatment, randomized crossover study with a 7-day washout between each period to compare the plasma concentrations of 75, 150, 300 and 600 mg of aliskiren (dosage form 3) in healthy volunteers was carried out. A total of 32 healthy subjects enrolled and 30 completed all study procedures and treatments. Subjects were screened during a 21-Day period and, if eligible, proceeded to a baseline visit prior to each treatment (four baseline evaluations in total). There was an end of study evaluation prior to discharge from the study site. Subjects were randomized into 4 dosing sequence groups with 8 subjects per sequence. The subjects were admitted to the study center at least 12 hours prior to the initial dosing in each period for baseline evaluations, and were confined to the clinic for at least 48 h post-dose in each period. Following an inter-dose interval of at least 7 days, each subject returned to the study site to receive the alternate treatment as per their randomization schedule. All subjects received each of the 75, 150, 300 and 600 mg treatments once during the study according to a randomization schedule. Plasma samples for determination of aliskiren were obtained over 96 hour period after the dose in each treatment segment. For all treatment periods, subjects fasted for a minimum of 10 hours pre-dose to 4 hours post-dose. Subjects were considered to have completed the study when all safety and pharmacokinetic evaluations had been completed.
Blood samples were collected to determine the pharmacokinetics following a single oral dose of 75, 150, 300 or 600 mg of aliskiren. Plasma concentrations of aliskiren were used to determine the pharmacokinetic parameters using non-compartmental methods, and the data are summarized in FIGS. 1, 2, and 3, and Table 1.

Where [1] appears, read: single oral dose 75 mg, healthy subjects n = 30.
Where [2] appears, read: single oral dose 150 mg, healthy subjects n = 30.
Where [3] appears, read: single oral dose 300 mg, healthy subjects n = 30.
Where [4] appears, read: single oral dose 600 mg, healthy subjects n = 30.

Read-outs that look alike come from different tables or passages of the source.

Take `COCCCOc1cc(C[C@@H](C[C@H](N)[C@@H](O)C[C@H](C(=O)NCC(C)(C)C(N)=O)C(C)C)C(C)C)ccc1OC` [aliskiren, 2(S),4(S),5(S),7(S)—N-(3-amino-2,2-dimethyl-3-oxopropyl)-2,7-di(1-methylethyl)-4-hydroxy-5-amino-8-[4-methoxy-3-(3-methoxy-propoxy)phenyl]-octanamide]: the Cmax was determined as 26 ng/mL under setting [1], 72 ng/mL under setting [2], 202 ng/mL under setting [3] and 420 ng/mL under setting [4]. In addition, the AUC(0-t) under setting [1] was found to be 266 ng·h/mL, the AUC(0-t) under setting [2] turned out to be 530 ng·h/mL, the AUC(0-t) under setting [3] turned out to be 1480 ng·h/mL and the AUC(0-t) under setting [4] came out at 3240 ng·h/mL. For the same compound, the AUC(0-inf) (single oral dose 75 mg, healthy subjects, n = 23) came to 356 ng·h/mL; the AUC(0-inf) (single oral dose 150 mg, healthy subjects, n = 29) amounted to 627 ng·h/mL; the AUC(0-inf) under setting [3] came to 1620 ng·h/mL; the AUC(0-inf) under setting [4] stood at 3520 ng·h/mL. Moreover, the Tmax (single oral dose 75 mg) was found to be 1 h, the time of peak concentration (Tmax) (single oral dose 150 mg) amounted to 2.5 h, the Tmax (single oral dose 300 mg) was 3 h and the Tmax (single oral dose 600 mg) is 2 h.

By Cmax is commonly meant the peak of the concentration-time curve. One may read the AUC(0-inf) as the area under the concentration-time curve extrapolated to infinity. A high value points to more exposure. For orientation: Tmax means the time from dosing to the highest level.
